The target of assay [1] is human Nav1.8 (Homo sapiens (Human), UniProt Q9Y5Y9). As to the kind of experiment: FRET-based membrane potential assay, recombinant human sodium channel Nav1.8. It counts as cell-based. Conditions: HEK293 cells stably expressing recombinant human Nav1.8; depolarization with veratridine (EC80) + scorpion venom. A digest of the protocol: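 HEK293 cells stably expressing Nav1.8 were loaded with CC2-DMPE/DiSBAC2(3) FRET voltage dyes. Compounds were added 3 min before depolarization with EC80 veratridine plus scorpion venom. The F440-480/F565-625 ratio was read on FLIPR; IC50 came from four-parameter Hill fits.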

In assay [2] the target is human Nav1.7 (Homo sapiens (Human), UniProt Q15858). The assay can be described thus: FRET-based membrane potential assay, recombinant human sodium channel Nav1.7. Conditions: HEK293 cells stably expressing recombinant human Nav1.7; depolarization with veratridine (EC80) + scorpion venom. It counts as cell-based. A digest of the protocol:
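IC50 derived by four-parameter Hill fit of percent inhibition of depolarization, measured as peak F440-480/F565-625 ratio over baseline. Stable human Nav1.7 HEK293 cells, dye-loaded with CC2-DMPE and DiSBAC2(3)/VABSC-1 at room temperature, received compound 3 min ahead of veratridine (EC80) plus scorpion venom.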

Chain of human Nav1.7 (Q15858 whole entry): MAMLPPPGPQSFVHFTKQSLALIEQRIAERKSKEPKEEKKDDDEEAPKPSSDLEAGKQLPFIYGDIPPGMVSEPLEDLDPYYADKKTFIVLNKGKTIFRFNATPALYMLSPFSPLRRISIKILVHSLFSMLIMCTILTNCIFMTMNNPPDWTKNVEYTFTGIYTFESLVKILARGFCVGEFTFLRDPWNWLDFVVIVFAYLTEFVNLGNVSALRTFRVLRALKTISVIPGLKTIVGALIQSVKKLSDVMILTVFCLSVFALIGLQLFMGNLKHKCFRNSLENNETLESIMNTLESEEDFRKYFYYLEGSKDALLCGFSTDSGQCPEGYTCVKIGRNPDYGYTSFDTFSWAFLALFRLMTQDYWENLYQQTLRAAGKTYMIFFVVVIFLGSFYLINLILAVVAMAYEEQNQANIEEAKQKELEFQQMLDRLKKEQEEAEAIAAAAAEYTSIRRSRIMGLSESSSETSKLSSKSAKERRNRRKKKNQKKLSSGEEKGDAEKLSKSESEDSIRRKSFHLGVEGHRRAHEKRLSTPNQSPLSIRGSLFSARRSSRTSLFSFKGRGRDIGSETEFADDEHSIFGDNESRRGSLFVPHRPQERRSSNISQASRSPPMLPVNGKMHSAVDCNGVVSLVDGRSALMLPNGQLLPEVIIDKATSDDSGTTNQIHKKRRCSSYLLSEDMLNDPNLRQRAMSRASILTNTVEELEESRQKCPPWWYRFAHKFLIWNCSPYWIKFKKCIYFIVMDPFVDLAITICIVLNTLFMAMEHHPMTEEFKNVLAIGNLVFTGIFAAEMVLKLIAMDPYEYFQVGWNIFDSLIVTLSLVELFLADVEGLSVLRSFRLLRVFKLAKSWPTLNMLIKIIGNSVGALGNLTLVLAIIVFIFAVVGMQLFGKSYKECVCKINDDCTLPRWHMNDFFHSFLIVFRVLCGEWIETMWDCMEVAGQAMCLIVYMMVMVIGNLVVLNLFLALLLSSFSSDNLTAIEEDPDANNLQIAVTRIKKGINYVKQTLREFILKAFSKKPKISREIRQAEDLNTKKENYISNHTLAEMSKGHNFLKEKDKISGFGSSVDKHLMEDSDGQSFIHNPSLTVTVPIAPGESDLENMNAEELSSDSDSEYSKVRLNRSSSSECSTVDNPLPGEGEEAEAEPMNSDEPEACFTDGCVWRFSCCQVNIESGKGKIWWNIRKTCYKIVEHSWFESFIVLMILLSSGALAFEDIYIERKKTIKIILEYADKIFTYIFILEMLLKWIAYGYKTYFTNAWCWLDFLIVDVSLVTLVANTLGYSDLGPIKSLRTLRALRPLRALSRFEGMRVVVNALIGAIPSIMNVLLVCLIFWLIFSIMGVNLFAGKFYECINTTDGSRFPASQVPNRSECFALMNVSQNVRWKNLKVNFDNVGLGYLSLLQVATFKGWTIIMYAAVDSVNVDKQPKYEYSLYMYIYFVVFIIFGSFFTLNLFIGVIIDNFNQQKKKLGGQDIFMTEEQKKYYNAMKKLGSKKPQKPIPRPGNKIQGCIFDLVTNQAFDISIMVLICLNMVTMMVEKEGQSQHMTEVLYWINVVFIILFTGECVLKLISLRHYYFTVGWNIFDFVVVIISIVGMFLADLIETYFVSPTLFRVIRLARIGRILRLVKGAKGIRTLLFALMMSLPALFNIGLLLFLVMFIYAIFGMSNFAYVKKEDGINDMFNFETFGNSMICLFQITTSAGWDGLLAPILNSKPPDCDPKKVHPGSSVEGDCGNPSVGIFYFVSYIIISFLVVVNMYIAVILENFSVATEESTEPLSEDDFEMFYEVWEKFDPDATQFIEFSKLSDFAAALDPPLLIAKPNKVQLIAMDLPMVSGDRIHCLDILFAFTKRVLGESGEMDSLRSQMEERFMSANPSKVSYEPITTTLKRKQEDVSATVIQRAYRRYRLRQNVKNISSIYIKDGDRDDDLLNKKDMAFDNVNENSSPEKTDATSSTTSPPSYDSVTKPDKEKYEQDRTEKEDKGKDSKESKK
Chain of human Nav1.8 (Q9Y5Y9 whole entry): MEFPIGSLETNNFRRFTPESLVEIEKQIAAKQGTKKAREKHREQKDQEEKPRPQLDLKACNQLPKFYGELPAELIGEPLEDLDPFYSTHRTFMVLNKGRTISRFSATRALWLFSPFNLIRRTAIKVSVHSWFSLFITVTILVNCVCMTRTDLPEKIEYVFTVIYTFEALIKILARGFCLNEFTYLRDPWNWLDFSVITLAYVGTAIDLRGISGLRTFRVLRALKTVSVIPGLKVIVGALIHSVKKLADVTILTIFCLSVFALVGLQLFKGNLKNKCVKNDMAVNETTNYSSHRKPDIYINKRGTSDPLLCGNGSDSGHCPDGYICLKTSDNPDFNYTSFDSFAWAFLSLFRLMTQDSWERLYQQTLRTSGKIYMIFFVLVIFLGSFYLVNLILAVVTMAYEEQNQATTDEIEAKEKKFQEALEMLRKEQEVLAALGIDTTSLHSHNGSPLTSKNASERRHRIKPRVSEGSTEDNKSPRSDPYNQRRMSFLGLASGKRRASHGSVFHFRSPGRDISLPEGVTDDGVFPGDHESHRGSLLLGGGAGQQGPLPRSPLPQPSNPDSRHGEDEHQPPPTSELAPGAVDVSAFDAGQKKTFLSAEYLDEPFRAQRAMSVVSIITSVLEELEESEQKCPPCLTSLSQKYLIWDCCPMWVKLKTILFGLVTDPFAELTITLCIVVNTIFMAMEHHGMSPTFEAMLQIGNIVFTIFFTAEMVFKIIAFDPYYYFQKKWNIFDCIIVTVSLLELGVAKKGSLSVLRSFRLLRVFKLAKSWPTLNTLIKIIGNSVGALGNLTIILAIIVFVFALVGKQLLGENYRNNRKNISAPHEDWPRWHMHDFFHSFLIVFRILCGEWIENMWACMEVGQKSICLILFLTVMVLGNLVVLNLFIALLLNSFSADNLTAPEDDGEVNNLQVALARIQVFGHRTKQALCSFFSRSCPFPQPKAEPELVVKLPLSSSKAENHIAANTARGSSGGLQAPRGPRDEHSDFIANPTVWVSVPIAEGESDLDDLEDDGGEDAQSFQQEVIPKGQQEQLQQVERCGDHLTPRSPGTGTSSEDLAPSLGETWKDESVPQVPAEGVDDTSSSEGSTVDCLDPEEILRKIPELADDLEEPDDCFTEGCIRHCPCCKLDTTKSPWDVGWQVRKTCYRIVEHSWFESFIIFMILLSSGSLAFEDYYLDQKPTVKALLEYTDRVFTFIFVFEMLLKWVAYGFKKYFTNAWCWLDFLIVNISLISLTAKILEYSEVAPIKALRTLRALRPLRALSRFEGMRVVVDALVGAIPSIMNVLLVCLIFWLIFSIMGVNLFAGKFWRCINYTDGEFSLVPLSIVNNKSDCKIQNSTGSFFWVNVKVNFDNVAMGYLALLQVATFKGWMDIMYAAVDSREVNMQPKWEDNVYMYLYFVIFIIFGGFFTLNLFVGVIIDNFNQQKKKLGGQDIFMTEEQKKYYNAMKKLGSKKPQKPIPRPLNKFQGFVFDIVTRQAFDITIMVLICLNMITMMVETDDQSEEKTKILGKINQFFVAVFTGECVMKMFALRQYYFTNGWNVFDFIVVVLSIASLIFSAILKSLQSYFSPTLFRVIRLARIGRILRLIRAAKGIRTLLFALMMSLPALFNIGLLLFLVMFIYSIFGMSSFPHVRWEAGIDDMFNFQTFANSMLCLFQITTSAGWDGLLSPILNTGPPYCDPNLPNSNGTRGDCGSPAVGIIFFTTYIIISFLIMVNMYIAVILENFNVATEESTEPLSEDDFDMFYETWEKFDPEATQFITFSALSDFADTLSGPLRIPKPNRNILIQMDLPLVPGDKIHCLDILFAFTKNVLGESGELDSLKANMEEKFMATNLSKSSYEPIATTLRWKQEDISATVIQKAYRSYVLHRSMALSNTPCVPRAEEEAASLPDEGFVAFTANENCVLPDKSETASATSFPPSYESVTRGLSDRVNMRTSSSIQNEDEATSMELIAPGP

Turning to `C[C@H]1CCCN1C(=O)CN1CCN(c2cccc3c2cnn3-c2ccccc2F)C1=O` [Example 15, 1-[1-(2-fluorophenyl)-1H-indazol-4-yl]-3-{2-[(2S)-2-methylpyrrolidin-1-yl]-2-oxoethyl}imidazolidin-2-one], the IC50 in assay [1] worked out at 1810 nM; in assay [2] it was 625 nM.
With `Cc1noc(C(C)N2CCN(c3cccc4c3cnn4-c3ccccc3F)C2=O)n1` (racemic) [Example 46, 1-[1-(2-fluorophenyl)-1H-indazol-4-yl]-3-[1-(3-methyl-1,2,4-oxadiazol-5-yl)ethyl]imidazolidin-2-one], the IC50 came to 8730 nM in assay [1] and 1870 nM in assay [2].
In the case of `Cc1noc(C)c1CN1CCN(c2cccc3c2cnn3-c2ccccc2F)C1=O` [Example 27, 1-[(3,5-dimethyl-1,2-oxazol-4-yl)methyl]-3-[1-(2-fluorophenyl)-1H-indazol-4-yl]imidazolidin-2-one], the values for the IC50 in assay [1] and in assay [2] were 1040 nM and 546 nM, respectively.
As to `O=C(CN1CCN(c2cccc3c2cnn3-c2ccccc2F)C1=O)N[C@@H]1CCOC1` [Example 55, 2-{3-[1-(2-fluorophenyl)-1H-indazol-4-yl]-2-oxoimidazolidin-1-yl}-N-[(3R)-tetrahydrofuran-3-yl]acetamide], the IC50 in assay [1] was found to be 5280 nM; in assay [2] it was 2240 nM.

In general, IC50 refers to the concentration needed to halve the response being measured.

The values above are taken from US9783527B2, “Indazole ureas and method of use” (AbbVie Inc., priority 2014, dated 2017).
